“Also recorded” adds a separate entry of the source. *1 amine or outer side, *2 acyl side, *3 side chain or, on linkers, in order; H or OH if unused. Where a SMILES comes first, the peptide text is derived from it. Bridges are numbered along the chain shown (N, C = ends). Roman numbers before positions name the chains, in order. [ ]: non-standard residue; d: D form. Actinocin(9to1) = Cc1c2oc3c(C)ccc(C(=O)[*:1])c3nc-2c(C(=O)[*:2])c(N)c1=O; NMeV = CN[C@H](C(=O)O)C(C)C; Sar = CNCC(=O)O
Assays:
[1] = test system: stress granules; test: Arsenite-induced stress granule formation time course; type: cell-based, human; conditions: arsenite 400 μM
Description: (§1) Cell treatment with arsenite to dissociate polysomes Cells were treated by adding sodium arsenite to cell media at a concentration of 400 μM, which is in excess of saturating concentrations for polysome disassembly (Kedersha et al., 2016). […] Inhibition of polysome disassembly by pre-treating with cycloheximide was added to a final concentration of 100 μg/mL (G3BP KO cells expressing indicated fluorescent fusion proteins). Following 30-minutes of incubation, arsenite was added at a concentration of 400 μM. 1-hour later, cells were assessed for formation of stress granules (GFP-G3BP rescue) or activation cycles were performed (Corelets).

[2] = test system: opto-SGs (optogenetic stress granules) of G3BP ΔNTF2 Corelets in U2OS cells; test: G3BP ΔNTF2 Corelet opto-SG intracellular phase diagram; type: cell-based, human
Source text: To quantitatively interrogate the relationship between RBD valence and the threshold protein complex concentration for stress granule formation, the Corelet system described previously (the cores are comprised of a 24-mer ferritin complex coated by iLID molecules, which serves as an oligomerization platform mediated by blue light-stimulated sspB-iLID interactions, where the sspB-iLID is fused to the IDR regions and RBDs of G3BP) can be utilized to quantitatively map valence and concentration-dependent phase diagrams.
Pre-activation and post-activation images of G3BP KO cells stably expressing the indicated fusion proteins were captured with the mCherry (560) channel only to visualize the sspB component without triggering light-induced dimerization with the iLID-mGFP tagged Ferritin core. Cells were activated with a 488-laser using 1% laser power to cause dimerization of iLID and sspB. Activation of cells was achieved by imaging the mCherry and mGFP channels simultaneously using a 6-second frame interval for an area of 120×120 μm2 (1024×1024 pixels) at Nyquist zoom.
as §1
Actinomycin D dissolved in DMSO was used to treat G3BP KO cells expressing indicated Corelets at a concentration of 5 μg/mL. Images were taken 12-18 hours after actinomycin D treatment, a time interval during which nucleoli were no longer apparent by bright field observation and the vast majority of mRNA was expected to be degraded. Final concentration of DMSO was 0.5%. For Actinomycin D plus arsenite experiments, arsenite was added at a concentration of 400 μM˜12 hours following actinomycin D treatment and cells were imaged 1-2 hours subsequently. […] Time point was chosen to maximize the time since treatment (i.e. to reduce RNA cells by as much as possible) without extensive lethality from the drug.
In order to determine precise phase threshold boundaries for intracellular phase diagrams, analyzed cells must feature high variability with respect to sspB-mCherry and iLID-mGFP stoichiometries to sample sufficient core concentrations and valencies. In order to achieve a broad concentration range for both components, G3BP KO cells were transduced in 96-well plates (Cellvis) using an arrayed lentivirus approach. In this protocol, rows varied from 2 to 60 μL iLID-GFP-Fe lentivirus; columns, 2 to 60 μL mCherry-sspB-open reading frame (ORF)/ORF-mCherry-sspB lentivirus. G3BP KO cells were plated directly into the arrayed lentivirus to attain ˜25% confluency upon subsequent attachment to the plastic substrate.

[3] = test system: G3BP KO cells; test: Lethality of drug treatment in cultured cells (qualitative observation); conditions: arsenite 400 μM; Actinomycin D 5 μg/mL
Description: as §1
Actinomycin D dissolved in DMSO was used to treat G3BP KO cells expressing indicated Corelets at a concentration of 5 μg/mL. Images were taken 12-18 hours after actinomycin D treatment, a time interval during which nucleoli were no longer apparent by bright field observation and the vast majority of mRNA was expected to be degraded. Final concentration of DMSO was 0.5%. For Actinomycin D plus arsenite experiments, arsenite was added at a concentration of 400 μM˜12 hours following actinomycin D treatment and cells were imaged 1-2 hours subsequently.

[4] = test system: CAPRIN1 RGG Corelets; test: CAPRIN1 RGG (RBD) Corelet phase separation after RNA depletion; type: cell-based, human; conditions: RNA depletion by Actinomycin D
Source text: High valence G3BP RBD nodes (but not dimeric bridges) are sufficient to induce stress granule formation following polysome disassembly, but it is unclear whether this is a unique feature of G3BP or common to RNA-binding nodes that interact with G3BP NTF2. We reasoned that if such NTF2-associated RBPs contribute essential, additive RNA-binding valence to the multi-protein complex, synthetic high valence nodes connected to individual RBDs would nucleate opto-SGs in isolation (i.e. mimic G3BP RBD Corelets). To test this, the RBDs of CAPRIN1 and UBAP2L were oligomerized utilizing the Corelet system, and mapped phase diagrams in both non-treated and arsenite-exposed cells. […] Further, condensate protein composition, P-body attachment, and relative phase thresholds are not determined by the type or number of RNA-binding motifs. […]
In order to determine precise phase threshold boundaries for intracellular phase diagrams, analyzed cells must feature high variability with respect to sspB-mCherry and iLID-mGFP stoichiometries to sample sufficient core concentrations and valencies. […] In this protocol, rows varied from 2 to 60 μL iLID-GFP-Fe lentivirus; columns, 2 to 60 μL mCherry-sspB-open reading frame (ORF)/ORF-mCherry-sspB lentivirus. […]

[5] = test system: stress granule formation in G3BP KO U2OS cells; test: G3BP rescue / rescue competition of stress granule formation in G3BP KO U2OS cells; type: cell-based, human; conditions: for rescue of stress granule formation in G3BP KO cells: expressed protein in G3BP KO cells
Description: For G3BP rescue competition experiments, an identical arrayed lentivirus approach was used as described in Phase diagram data collection (i.e. 2-60 μL G3BPmCherry and 2-60 μL mGFP-ORF, arrayed 4-wells by 4-wells for 16-wells total of a 96-well plate). G3BP KO cells were plated into lentivirus then combined and passaged 72-hours later.
Live cell confocal microscopy was performed on Day 5 post-transduction. For each condition (GFP-tagged protein of interest), 4 separate experiments (each experiment=1-well/arsenite treatment) were performed on three separate days with numerous technical replicates (fields of view). Live confocal imaging was performed 1-2 hours following arsenite treatment. mCherry and mGFP concentrations were determined similarly as for phase diagrams and manual scoring of stress granule absence or presence was performed. Similar protocols were used to assess rescue in the absence of competition.
The concentration of each cell was determined via manual image segmentation as previously described and absence or presence of stress granules was annotated. To determine a boundary from the data, a support vector machine (SVM) trained using the concentrations of the two components as explanatory variables and the categorical stress granule state as a response variable by applying the fitcsvm( ) function in the MATLAB Statistics and Machine Learning package using the default solver. Briefly, a support vector machine constructs a linear decision surface based on boundary points (‘support vectors’), with the assumption that the data is linearly separable. […]
For each experiment, the concentration of the protein of interest was determined for each cell, and the presence of stress granules was categorized. […] Specifically, the probability density was calculated by binning the concentration distribution using a square root number rule. Within each bin, the probability of having stress granules was calculated as the number of cells with stress granules over the total number of cells in that bin. […]

Q: Which results are given for `O=[As]O` [arsenite, sodium arsenite]?
A: time by which SG number/size peaked [1]: ≤ 45 min; valence required to drive condensation ([2]; at 0.15 μM Core, arsenite 400 μM, non-stressed cells need valence ~24): ~8; time after treatment at which cells began to die / treatment was lethal [3]: ~6 h

Q: For `Cc1c2oc3c(C)ccc(C(=O)N[C@@H]4C(=O)N[C@H](C(C)C)C(=O)N5CCC[C@H]5C(=O)N(C)CC(=O)N(C)[C@@H](C(C)C)C(=O)O[C@@H]4C)c3nc-2c(C(=O)N[C@@H]2C(=O)N[C@H](C(C)C)C(=O)N3CCC[C@H]3C(=O)N(C)CC(=O)N(C)[C@@H](C(C)C)C(=O)O[C@@H]2C)c(N)c1=O` [Actinomycin D] (I: T[dV]P[Sar][NMeV] / II: T[dV]P[Sar][NMeV]; ester I:1-I:C, II:1-II:C; linker I:N-II:N via Actinocin(9to1)), which “formation of opto-SGs” value ([2]; Actinomycin D 5 μg/mL, 12-18 hours, FIG. 15D) is on record?
A: Its value is “prevents the formation of opto-SGs; also recorded: disrupts the formation of SGs”.

Q: What about the “phase separation of CAPRIN1 RGG Corelets” value [4] of the same molecule?
A: Its value is “abrogates phase separation”.

Q: What about the “time after treatment at which cells began to die / treatment was lethal” value [3] of the same molecule?
A: The value was 30 to 36 h.

Q: With “G3BP F33W: G3BP variant unable to bind USP10 or CAPRIN1” as the molecule, how does the “rescue of stress granule formation in G3BP KO cells” value [5] read?
A: The value was “rescues SG formation”.

Q: Which EC50 ([5]; G3BP KO U2OS cells, arsenite, read-out: G3BP concentration for rescue of stress granule formation) does the source give for “G3BP: stress granule nucleating protein, fluorescently tagged, expressed in G3BP KO cells” here?
A: The EC50 was 620 nM.

Q: What does the source list for `C[C@@H]1C[C@@H]([C@H](O)CC2CC(=O)NC(=O)C2)C(=O)[C@@H](C)C1` [cycloheximide]?
A: calculated best-fit phase threshold ([2]; arsenite and cycloheximide, FIG. 15C vs FIG. 15A): almost identical to that of nontreated cells; arsenite-driven shift in the opto-SG phase diagram ([2]; pre-treatment with cycloheximide 100 μg/mL 30 min, then arsenite 400 μM): negated

B1: CAPRIN1: NTF2-interacting RNA-binding stress granule protein (protein, UniProt Q14444 2-709, looked up)
Caprin-1: PSATSHSGSGSKSSGPPPPSGSSGSEAAAGAGAAAPASQHPATGTGAVQTEAMKQILGVIDKKLRNLEKKKGKLDDYQERMNKGERLNQDQLDAVSKYQEVTNNLEFAKELQRSFMALSQDIQKTIKKTARREQLMREEAEQKRLKTVLELQYVLDKLGDDEVRTDLKQGLNGVPILSEEELSLLDEFYKLVDPERDMSLRLNEQYEHASIHLWDLLEGKEKPVCGTTYKVLKEIVERVFQSNYFDSTHNHQNGLCEEEEAASAPAVEDQVPEAEPEPAEEYTEQSEVESTEYVNRQFMAETQFTSGEKEQVDEWTVETVEVVNSLQQQPQAASPSVPEPHSLTPVAQADPLVRRQRVQDLMAQMQGPYNFIQDSMLDFENQTLDPAIVSAQPMNPTQNMDMPQLVCPPVHSESRLAQPNQVPVQPEATQVPLVSSTSEGYTASQPLYQPSHATEQRPQKEPIDQIQATISLNTDQTTASSSLPAASQPQVFQAGTSKPLHSSGINVNAAPFQSMQTVFNMNAPVPPVNEPETLKQQNQYQASYNQSFSSQPHQVEQTELQQEQLQTVVGTYHGSPDQSHQVTGNHQQPPQQNTGFPRSNQPYYNSRGVSRGGSRGARGLMNGYRGPANGFRGGYDGYRPSFSNTPNSGYTQSQFSAPRDYSGYQRDGYQQNFKRGSGQSGPRGAPRGRGGPPRPNRGMPQMNTQQVN
Q: For B1, which “rescue of stress granule formation in G3BP KO cells” value [5] is on record?
A: Its value is “does not rescue”.

From patent publication US20220154192A1, “SYSTEM AND METHOD FOR LIGHT-REGULATED OLIGOMERIZATION AND PHASE SEPARATION OF FOLDED DOMAINS AND RNA GRANULE-ASSOCIATED PROTEIN DOMAINS FOR DRUG- BASED SCREENING APPLICATIONS” (The Trustees of Princeton University, priority 2019, published 2022)
